# Values of other authors as cited in US20110236508A1, “L-ARGININE-BASED FORMULATION FOR ORAL ABSORPTION” (priority 2008, published 2011).
# Columns and labels:
# coronary artery disease = conditions: 9 g/day orally for 6 months
# [1] = 24 hypercholesterolemic patients, 14 g/day for 12 weeks
# anginal patients = conditions: 6 g/day
# [2] = tested on: peripheral arterial disease; conditions: 8 g, bid, 14 days
# [3] = tested on: coronary endothelial dysfunction; conditions: oral 3 g TID, after 6 months
# mice deficient in Apo-E = conditions: 6% L-arginine drinking solution
compound,measurement,setting,value
N=C(N)NCCC[C@H](N)C(=O)O [L-arginine],flow-mediated dilation (FMD) of the brachial artery,"brachial artery; 8 g p.o. two times daily for 14 days, 12 healthy old subjects, p<0.0001",5.7+/−1.2%
same,plasma levels of L-arginine,"brachial artery; after 8 g p.o. two times daily for 14 days, versus 57.4+/−5.0",114.9 ± 11.6 µM
same,ADMA plasma concentrations,"brachial artery; during treatment, 8 g p.o. two times daily for 14 days",remained unchanged
same,decrease in anginal episodes,coronary artery disease,70%
same,improvement of acetylcholine-induced coronary vascular relaxation,coronary artery disease,149%
same,adverse effects,[1],no reports of any adverse effects
same,exercise tolerance,anginal patients,improved
same,time to 1 mm ST-segment depression during exercise-stress testing,anginal patients,increased
same,improvement in walking distance,[2],150%
same,patients' symptoms scores,[3]; compared with placebo,improvement
same,plasma endothelin concentrations,[3]; compared with placebo,decrease
same,coronary blood flow in response to acetylcholine,[3]; P<0.05 versus placebo,149±20%
same,increase in treadmill exercise performance,mice deficient in Apo-E,61%
